Measurements taken from patent US20260364080A1, “PYRAZOLO-PYRIMIDINONE COMPOUNDS FOR USE IN METHODS OF INHIBITING WEE1 A KINASE” (Acrivon Therapeutics, Inc., priority 2023, published 2026).

Experiments:
[1] = target: T1, recombinant human Wee1A kinase (Homo sapiens, UniProt P30291); assay: Wee1A kinase binding assay (LanthaScreen Eu time-resolved FRET); conditions: 30 nM tracer 178, 5 nM Wee1A kinase, 2 nM Eu-labeled antibody; 60 minutes at room temperature; read-out: Wee1A kinase Binding IC50
T1 construct: full length Wee1 kinase was expressed by baculovirus in insect cells; purchased Invitrogen PV3817; host or cells: insect cells (baculovirus)
Method: This time resolved-FRET binding assay was performed in white 384-well low volume plates (Greiner, cat #784075), at room temperature in kinase buffer A (KBA; Invitrogen cat #PV3189), consisting of 50 mM HEPES-NaOH (pH 7.5), 0.01% Brij-35, 10 mM MgCl2, and 1 mM EGTA. 5 μL of compound (diluted in reaction buffer, to 1% DMSO) were added to various wells in the plate, followed by 5 μL each of recombinant human Wee1A kinase (full length Wee1 kinase was expressed by baculovirus in insect cells using a N-terminal GST tag (MW: 99.1 kDa) (Invitrogen cat #PV3817) and LanthaScreen Eu-anti-GST antibody (Invitrogen, cat #PV5594). After this, 5 μL of kinase tracer 178 (Invitrogen, cat #PV5593) was added to the plate and the plate was incubated for 60 minutes at room temperature. The final assay conditions in each well were: 30 nM tracer 178, 5 nM Wee1A kinase and 2 nM Eu-labeled antibody in total assay volume of 15 μL. An Envision 2104 (Perkin-Elmer) Plate Reader with the following time-resolve fluorescence setting was used for performing LanthaScreen kinase binding assay. • Excitation 320 nm (30 nm bandpass) • Kinase Tracer Emission 665 nm (10 nm bandpass) • LanthaScreen Eu-anti-Tag Antibody Emission 615 nm (10 nm bandpass) • Dichroic Mirror Instrument dependent • Delay Time 100 μs • Integration Time 200 μs
(§1) To calculate the emission ratio, the acceptor/tracer emission ([…]) was divided by the antibody/donor emission ([…]) and the average of duplicate measurement was used for calculations. Data plotting, analysis of binding, and curve fitting was done using Excel add-in XLfit version 5.5.0.5 (IDBS, Guildford, United Kingdom). […] “NT” means not tested.

[2] = target: T2, Myt1 kinase (recombinant PMYT-1) (Homo sapiens, UniProt Q99640); assay: Myt1 kinase binding assay (LanthaScreen Eu Kinase Binding Assay); conditions: 3 nM tracer 178, 2.5 nM PMYT-1, 1 nM Eu-labeled antibody; read-out: Myt1 kinase Binding IC50
T2 construct: full length PMYT-1 was expressed by baculovirus in insect cells; purchased Invitrogen A30984; host or cells: insect cells (baculovirus)
T2 sequence (Q99640 1-499): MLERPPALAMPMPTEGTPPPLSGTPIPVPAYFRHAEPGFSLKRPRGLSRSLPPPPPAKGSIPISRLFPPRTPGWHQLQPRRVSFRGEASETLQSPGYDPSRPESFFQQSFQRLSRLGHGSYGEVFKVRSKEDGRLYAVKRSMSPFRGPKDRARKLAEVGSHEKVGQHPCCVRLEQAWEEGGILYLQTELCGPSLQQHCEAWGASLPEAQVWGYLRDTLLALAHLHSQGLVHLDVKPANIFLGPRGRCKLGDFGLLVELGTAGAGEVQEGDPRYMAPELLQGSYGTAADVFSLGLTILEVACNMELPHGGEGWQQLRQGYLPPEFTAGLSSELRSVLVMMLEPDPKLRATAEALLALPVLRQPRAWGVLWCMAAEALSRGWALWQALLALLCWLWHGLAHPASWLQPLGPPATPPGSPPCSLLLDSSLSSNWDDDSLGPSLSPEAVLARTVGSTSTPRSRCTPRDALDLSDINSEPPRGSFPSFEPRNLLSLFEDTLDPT
Method: as §1
We used a LanthaScreen Europium (Eu) Kinase Binding Assay to determine the binding affinities (IC50) of compounds to Myt1 kinase. […] “NT” designates that the compound was not tested in this assay.

[3] = target: T3, Wee1A kinase (CDK1 Tyr15 phosphorylation in ACHN renal cell carcinoma cells) (Homo sapiens, UniProt P30291); assay: High-content imaging of pCdk1 Y15, Wee1A kinase target engagement in ACHN cells; assay type: cell-based; conditions: 4 h treatment, nuclear positivity for pCdk1 Y15 vs DMSO control, read-out: CDK1 Tyr15 Phosphorylation EC50
T3 construct: pCDK1 Tyr15 immunofluorescence read-out
Method: Each of an ACHN renal cell carcinoma cell line (ATCC) and a DAOY medulloblastoma cell line, and an A427 lung cancer line were cultured in Minimum Essential Medium Eagle supplemented with 10% fetal calf serum (Sigma), 1% Penicillin-Streptomycin and 10 mM HEPES buffer (HyClone). Cell cultures were kept in a humidified incubator at 37 °C and 5% CO2. Cells were routinely tested for Mycoplasma contamination.
For target engagement assessment of Wee1A kinase inhibition, high-content imaging of ACHN renal cell carcinoma cells was used for quantification of CDK1 phosphorylated on tyrosine 15 by immunofluorescence (“IF”). 20,000 cells per well were seeded in tissue culture treated 96 well plates and treated with compounds at concentrations ranging from 7 to 5,000 nM or from 0.3 to 200 nM for 4h. Cells were fixated for 15 minutes in 4% paraformaldehyde solution, washed in PBS and permeabilized using 0.2% Triton X-100. Blocking was performed for 1 h at RT using Blocker FL Fluorescent Blocking Buffer (Thermo Scientific), thereafter cells were incubated with primary antibody (rabbit anti-pCDK1 Y^15, #4539, Cell Signaling Technology) at 4 °C ON. Alexa Fluor Plus 647 labelled goat anti-rabbit (A32733, Thermo Scientific) was used as secondary antibody. After washing in PBS, nuclei were stained with DAPI solution for 10 min at RT, protected from light. Cells were imaged using an ImageXpress Pico automated imaging system and CellReporter Xpress software (Molecular Devices). The percentage of cells with nuclear positivity for pCdk1 Y^15 compared to DMSO control was determined for each well and drug dose response curves and EC50 values were calculated and visualized using GraphPad Prism. Target engagement for Wee1A kinase can also be measured using the same AlphaLISA assay in OVCAR3 cells, an ovarian cancer cell line. NIH:OVCAR-3 (OVCAR3) cells are cultured in RPMI-1640 medium supplemented with 0.01 mg/ml insulin, 20% FBS, 1% Penicillin-Streptomycin and 10 mM HEPES buffer. 14,000 cells per well are seeded into 96 well tissue culture plates in full medium. Twenty-four hours post seeding, cells are treated with compound for 4 hours at concentrations ranging from 0.017 nM to 1000 nM.

T1 sequence (P30291 whole entry): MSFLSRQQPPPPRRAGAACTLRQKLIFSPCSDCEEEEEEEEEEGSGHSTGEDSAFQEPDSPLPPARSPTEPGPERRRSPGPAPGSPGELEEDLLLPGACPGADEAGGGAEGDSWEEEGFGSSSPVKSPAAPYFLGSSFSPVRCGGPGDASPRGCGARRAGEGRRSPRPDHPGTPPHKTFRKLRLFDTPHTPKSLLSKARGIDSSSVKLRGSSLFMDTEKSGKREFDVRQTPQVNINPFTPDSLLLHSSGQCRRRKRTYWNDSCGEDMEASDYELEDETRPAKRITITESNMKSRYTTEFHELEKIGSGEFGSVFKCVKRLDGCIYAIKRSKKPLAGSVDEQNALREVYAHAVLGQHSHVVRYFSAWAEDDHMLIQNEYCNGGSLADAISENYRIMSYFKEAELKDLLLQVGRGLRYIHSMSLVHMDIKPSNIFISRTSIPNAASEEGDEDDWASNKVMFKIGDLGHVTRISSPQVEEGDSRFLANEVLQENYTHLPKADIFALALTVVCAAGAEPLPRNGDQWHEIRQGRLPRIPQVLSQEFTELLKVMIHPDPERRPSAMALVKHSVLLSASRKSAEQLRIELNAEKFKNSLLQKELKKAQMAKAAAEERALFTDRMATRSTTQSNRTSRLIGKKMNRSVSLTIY
T3 sequence (P30291 whole entry): as above

| IC50 [1] [nM] | IC50 [2] [nM] | EC50 [3] [nM] | SMILES |
| --- | --- | --- | --- |
| < 10 | < 20 | < 100 | C=CCn1c(=O)c2cnc(Nc3ccc4c(cnn4CC(C)C)c3)nc2n1-c1cccc(OC2CCNCC2)n1 [Compound 356, 2-allyl-6-((1-isobutyl-1H-indazol-5-yl)amino)-1-(6-(piperidin-4-yloxy)pyridin-2-yl)-1,2-dihydro-3H-pyrazolo[3,4-d]pyrimidin-3-one] |
| < 10 | 20 to 100 | < 100 | C=CCn1c(=O)c2cnc(Nc3ccc4c(c3)c(C)nn4C)nc2n1-c1cccc(OC2CCNCC2)n1 [Compound 347, 2-allyl-6-((1,3-dimethyl-1H-indazol-5-yl)amino)-1-(6-(piperidin-4-yloxy)pyridin-2-yl)-1,2-dihydro-3H-pyrazolo[3,4-d]pyrimidin-3-one] |
| < 10 | 100 to 500 | 100 to 500 | C=CCn1c(=O)c2cnc(Nc3ccc4c(cnn4C)c3)nc2n1-c1cccc(O[C@H]2CCN(C)[C@H](C)C2)n1 (stereo in doubt) [Compound 380, rel-2-allyl-1-(6-(((2R,4S)-1,2-dimethylpiperidin-4-yl)oxy)pyridin-2-yl)-6-((1-methyl-1H-indazol-5-yl)amino)-1,2-dihydro-3H-pyrazolo[3,4-d]pyrimidin-3-one] |
| < 10 | 20 to 100 | < 100 | CCn1c(=O)c2cnc(Nc3ccccc3)nc2n1-c1cccc(OC2CCN(C)CC2)n1 [Compound 117, 6-anilino-2-ethyl-1-[6-(1-methyl-4-piperidyloxy)-2-pyridyl]-1,2-dihydro-3H-1,2,5,7-tetraazainden-3-one] |
| < 10 | 20 to 100 | < 100 | C=CCn1c(=O)c2cnc(Nc3ccc(N4CCOCC4)c(C)c3)nc2n1-c1cccc(OC2CCNCC2)n1 [Compound 262, 2-allyl-6-(4-morpholino-3-toluidino)-1-[6-(4-piperidyloxy)-2-pyridyl]-1,2-dihydro-3H-1,2,5,7-tetraazainden-3-one] |
| < 10 | 100 to 500 | 100 to 500 | Cc1cc(Nc2ncc3c(=O)n(C)n(-c4cccc(OC5CCNCC5)n4)c3n2)ccc1F [Compound 154, 6-(4-fluoro-3-toluidino)-2-methyl-1-[6-(4-piperidyloxy)-2-pyridyl]-1,2-dihydro-3H-1,2,5,7-tetraazainden-3-one] |
| < 10 | 20 to 100 | 100 to 500 | CCCn1c(=O)c2cnc(Nc3ccc4c(cnn4C)c3)nc2n1-c1cccc(OC2CCNCC2)n1 [Compound 110, 6-[(1-methyl-1H-indazol-5-yl)amino]-1-[6-(piperidin-4-yloxy)pyridin-2-yl]-2-propyl-1H,2H,3H-pyrazolo[3,4-d]pyrimidin-3-one] |
| < 10 | 20 to 100 | > 1000 | C=CCn1c(=O)c2cnc(Nc3ccc4[nH]nc(Cl)c4c3)nc2n1-c1cccc(OC2CCNCC2)n1 [Compound 275, 2-allyl-6-((3-chloro-1H-indazol-5-yl)amino)-1-(6-(piperidin-4-yloxy)pyridin-2-yl)-1,2-dihydro-3H-pyrazolo[3,4-d]pyrimidin-3-one] |
| < 10 | < 20 | 100 to 500 | CCn1c(=O)c2cnc(Nc3ccc(-c4ccccc4)cc3)nc2n1-c1cccc(OC2CCNCC2)n1 [Compound 272, 6-(4-biphenylylamino)-2-ethyl-1-[6-(4-piperidyloxy)-2-pyridyl]-1,2-dihydro-3H-1,2,5,7-tetraazainden-3-one] |
| < 10 | 20 to 100 | 100 to 500 | C=CCn1c(=O)c2cnc(Nc3cncc(Cl)c3)nc2n1-c1cccc(OC2CCN(C)CC2)n1 [Compound 323, 2-allyl-6-(5-chloro-3-pyridylamino)-1-[6-(1-methyl-4-piperidyloxy)-2-pyridyl]-1,2-dihydro-3H-1,2,5,7-tetraazainden-3-one] |
| < 10 | 20 to 100 | 500 to 1000 | C=CCn1c(=O)c2cnc(Nc3ccc(Cl)cc3)nc2n1-c1cccc(NC2CCNCC2)n1 [Compound 124, 2-allyl-6-((4-chlorophenyl)amino)-1-(6-(piperidin-4-ylamino)pyridin-2-yl)-1,2-dihydro-3H-pyrazolo[3,4-d]pyrimidin-3-one] |
| < 10 | > 500 | 100 to 500 | C=CCn1c(=O)c2cnc(Nc3ccc4c(cnn4C)c3)nc2n1-c1cccc(OC2CCNCC2)c1 [Compound 223, 2-allyl-6-(1-methyl-1H-indazol-5-ylamino)-1-[m-(4-piperidyloxy)phenyl]-1,2-dihydro-3H-1,2,5,7-tetraazainden-3-one] |
|  | 20 to 100 | 100 to 500 | CCn1c(=O)c2cnc(Nc3cnn(C)c3)nc2n1-c1cccc(OC2CCN(C)CC2)n1 [Compound 341, 2-ethyl-6-[(1-methyl-1H-pyrazol-4-yl)amino]-1-{6-[(1-methylpiperidin-4-yl)oxy]pyridin-2-yl}-1H,2H,3H-pyrazolo[3,4-d]pyrimidin-3-one] |
| 10 to 100 | > 500 |  | C=CCn1c(=O)c2cnc(Nc3ccc(Cl)cc3)nc2n1-c1cccc(N(C)[C@@H]2CCCN(C)C2)n1 [Compound 163, (R)-2-allyl-6-((4-chlorophenyl)amino)-1-(6-(methyl(1-methylpiperidin-3-yl)amino)pyridin-2-yl)-1,2-dihydro-3H-pyrazolo[3,4-d]pyrimidin-3-one] |
| 10 to 100 | 100 to 500 |  | C=CCn1c(=O)c2cnc(Nc3ccc(Cl)cc3)nc2n1-c1cccc(O[C@H]2CCCN(C)C2)n1 [Compound 162, 6-[(4-chlorophenyl)amino]-1-(6-{[(3S)-1-methylpiperidin-3-yl]oxy}pyridin-2-yl)-2-(prop-2-en-1-yl)-1H,2H,3H-pyrazolo[3,4-d]pyrimidin-3-one] |
